Here are results for 11 molecules from patent US10519452B2, “Antiviral agent comprising RNA oligonucleotide” (priority 2015, dated 2019).

Where two headings read alike, the source gives them in different places. Oligonucleotides are written 5' to 3', each unit as a sugar letter and its base; * is a phosphorothioate linkage, no mark a phosphodiester; rarer units and linkages stand in square brackets, end groups in braces. Plain capitals give the bases only. {PPP} = triphosphate group; r = 2'-OH (RNA)

Assay type in all cases: cell-based
For one data set, the system named is interferon-β. Particulars: HEK293T cells, 1 μM RNA oligonucleotide with lipofectamine LTX, real-time PCR vs GAPDH; FIG. 3 and FIG. 4. In general terms: In qPCR the cycle at which signal appears reflects the starting amount.
In another data set the test system is ISG56. Particulars: for change in ISG56 expression: same method as Experimental Example 1, real-time PCR vs GAPDH, FIGS. 5 to 8.
The test system of data set [1] is influenza A virus/Puerto Rico/8/34(H1N1)(PR8).
For data set [2] the test system is unchanged. The source holds these as a separate data set.
[3] abbreviates: A549 cells infected with influenza A virus, FIG. 10 and FIG. 11.

In the case of “5′-OH-Bend-GC: RNA oligonucleotide composed of the base sequence of SEQ ID NO:8 with a hydroxy group at the 5′-end (GGUAGACGCGCGCGUUCGCGCGCGCGUUUGCC; RNA, backbone not given here; 5'-hydroxy, hairpin)”, in the data set with interferon-β, the “change in interferon-β expression” value is reported as “increased the interferon-β expression to a significant level”.
The same measure, in the same setting: next, “5′-OH-Bend-GC-8 bp: Shorter hairpin RNA composed of the base sequence of SEQ ID NO:10 with a hydroxy group at the 5′-end (GGUAGACGUUCGCGUUUGCC; RNA, phosphodiester; 5'-hydroxy, hairpin)”: “increased the interferon-β expression to a significant level”.
In the case of “5′-PPP-iav: RNA oligonucleotide composed of the base sequence of SEQ ID NO:6 with a triphosphate group at the 5′-end (GAGUAGAAACAAGGCUUCGGCCUGCUUUUGCUC; RNA, 5' {PPP}, backbone not given here)”, in the data set on interferon-β, the “change in interferon-β expression” value is “increase the expression of interferon-β and ISG56”. Moreover, in the data set with ISG56, the “change in ISG56 expression” value was “increase the expression of interferon-β and ISG56”.
In the case of “5′-OH-8 bp-Bend-GC-Minimum: Minimum-length double-stranded RNA of SEQ ID NO:3 and SEQ ID NO:4, each with a 5′-hydroxy group (chain 1 GGUAGACG; chain 2 CGUUUGCC; RNA, backbone not given here; 5'-hydroxy ends)”, the “change in ISG56 expression” value in the data set on ISG56 was “increased the ISG56 expression to a significant level”.
On to “5′-OH-iav: RNA oligonucleotide composed of the base sequence of SEQ ID NO:6 with a hydroxy group at the 5′-end (GAGUAGAAACAAGGCUUCGGCCUGCUUUUGCUC; RNA, backbone not given here; 5'-hydroxy)”, for which, in the data set with interferon-β, the “change in interferon-β expression” value was “increase the expression of interferon-β and ISG56”. Moreover, the “change in ISG56 expression” value with ISG56 was “increase the expression of interferon-β and ISG56”.
As for “5′-OH-Bend-GC-8 bp-PS: 5′-OH-Bend-GC-8 bp RNA oligonucleotide with phosphodiester bonds substituted with phosphorothioate bonds (rG*rG*rU*rA*rG*rA*rC*rG*rU*rU*rC*rG*rC*rG*rU*rU*rU*rG*rC*rC; 5'-hydroxy, hairpin)”, in the data set on ISG56, the “change in ISG56 expression” value is on record as “increased the ISG56 expression to a significant level”. Moreover, in data set [1], the “antiviral activity against influenza A virus (Western blot of viral NP and NS1)” value is given as “showed antiviral activity against influenza A virus in a concentration-dependent manner”. Besides, in data set [2], the “antiviral activity against influenza A virus (plaque assay, titer of viruses)” value is “showed antiviral activity against influenza A virus in a concentration-dependent manner”.
With “5′-OH-16mer-Double Bend: Double strands of two base sequences of SEQ ID NO:18, each with a 5′-hydroxy group; palindromic, two helical bend structures (chain 1 GGUAGACGCGUUUGCC; chain 2 GGUAGACGCGUUUGCC; sugars by position and backbone not given here; 5'-hydroxy ends, palindromic duplex)”, the “change in ISG56 expression” value in the data set on ISG56 was “increased the ISG56 expression to a significant level”.

B1: 5′-OH-Long_Bend Short: RNA oligonucleotide composed of the base sequence of SEQ ID NO:20 with a hydroxy group at the 5′-end (nucleic acid)
chain: GGUAGACGAAAAAAAAAAAAAAAAAAAAAAAAAAUAAUUUUUUUUUUUUUUUUUUUUUUUUUUCGUUUGCC
modifications: RNA, backbone not given here; 5'-hydroxy
Regarding B1, the “concentration at which expression of viral protein was significantly inhibited (Western blot)” value in data set [1] (setting [3]) was 100 nM.

B2: 5′-OH-Long_Bend: Long-length RNA oligonucleotide composed of the base sequence of SEQ ID NO:19 with a hydroxy group at the 5′-end (nucleic acid)
chain: GGUAGACGAAACCAGAUAAAAAAAAAAAAAAAAAAAAAAAAAAUAAUUUUUUUUUUUUUUUUUUUUUUUUUUAUCUGGUUUCGUUUGCC
modifications: RNA, phosphodiester; 5'-hydroxy
In the case of B2, the “change in ISG56 expression” value in the data set on ISG56 was “increased the ISG56 expression to a significant level”. In addition, in data set [1] (setting [3]), the “concentration at which expression of viral protein was significantly inhibited (Western blot)” value is reported as not below 10 nM. The “antiviral effect at low concentration compared with positive control (Western blot)” value in data set [1] (A549 cells, 10 nM, positive control 0.1 μg/ml poly I:C, FIG. 9A) is listed as “excellent effect corresponding to the positive control group (poly I:C)”. Besides, the “antiviral activity against influenza A virus (Western blot of viral NP and NS1)” value in data set [1] (A549 cells, 10, 30 or 100 nM, transfected 24 h before infection at 0.1 MOI, FIG. 9A) is “showed antiviral activity against influenza A virus in a concentration-dependent manner”. Further, in data set [2] (A549 cells, 10 nM, positive control 0.1 μg/ml poly I:C, FIG. 9B), the “antiviral effect at low concentration compared with positive control (plaque assay)” value is reported as “excellent effect corresponding to the positive control group (poly I:C)”. Further, in data set [2] (A549 cells, 10, 30 or 100 nM, titer on MDCK cells, FIG. 9B), the “antiviral activity against influenza A virus (plaque assay, titer of viruses)” value is on record as “showed antiviral activity against influenza A virus in a concentration-dependent manner”.

B3: 5′-OH-Long_Bend-BPS: 5′-OH-Long_Bend RNA oligonucleotide with part of phosphodiester bonds substituted with phosphorothioate bonds (nucleic acid)
chain: B2 chain
modifications: RNA, backbone not given here; 5'-hydroxy, partial phosphorothioate
As for B3, the “increase in the ISG56 expression as compared to 5′-OH-Bend-GC-8 bp” value with ISG56 (FIG. 8) is “about 7 fold”. Also, in the data set on ISG56, the “change in ISG56 expression” value is listed as “increased the ISG56 expression to a significant level”. The “concentration at which expression of viral protein was significantly inhibited (Western blot)” value in data set [1] was not below 1 nM.

B4: 5′-OH-Int-NS1: RNA oligonucleotide composed of the base sequence of SEQ ID NO:7 with a hydroxy group at the 5′-end (nucleic acid)
chain: AGUAGAAACAAGGGUGUUUUUUAUUAUUAAAUAAGCUGAAGUGUUUGGAUCCAUUAUGUCUUUGUCACCCUGCUUUUGCU
modifications: RNA, backbone not given here; 5'-hydroxy
B4: the “change in interferon-β expression” value in the data set on interferon-β is on record as “increased the interferon-β expression to a significant level”.
